Laboratory results: US20260234211A1, “POLYPEPTIDE HAVING MODIFIED STRUCTURE AND USE THEREOF” (Guangdong Raynovent Biotech Co., Ltd., priority 2023, published 2026)
Where two headings read alike, the source gives them in different places. Each block holds one compound with its values, some of them ahead of it.

Experiments:
GLP-1R = molecular target: T1, GLP-1R (Homo sapiens, UniProt P43220); experiment: In vitro GLP-1R agonistic activity test (cAMP, HEK293 cell line); format: cell-based
T1 construct: host or cells: HEK293
Method: The cell lines were constructed by Pharmaron Inc. See details in the table below.
The test compounds were diluted at a 5-fold dilution factor in 10 points, starting from an initial concentration of 200 nM.
1) The cell lines were cultured respectively in complete medium at 37° C. and 5% CO2.
1) Eu-cAMP tracer was freeze-thawed and diluted 50 fold with detection buffer; and Ulight-anti-cAMP was freeze-thawed and diluted 150 fold with detection buffer.
3) 10 μL of Eu-cAMP tracer was added and then 10 μL of Uligh-anti-cAMP was added into experimental wells respectively.
4) The reaction plate was centrifuged at 200 g at room temperature for 30 s and left for stand at 25° C. for 1 h.

[1] = Pharmacokinetic properties in Cynomolgus macaques; details: cynomolgus monkey, in vivo, male cynomolgus macaques, plasma
Method: To test the pharmacokinetic profiles of the compounds in Cynomolgus macaques.
Non-juvenile male cynomolgus macaques were used for experiment, 3 cynomolgus macaques for each compound. Whole blood was collected at time points of 1 h, 2 h, 4 h, 8 h, 16 h, 24 h, 48 h, 72 h, 120 h, 168 h and 240 h after administration, to prepare plasma. The drug concentration was analyzed by LC-MS/MS method, and the pharmacokinetic parameters were calculated using Phoenix WinNonlin software.

[2] = cAMP, HEK293 cells expressing GLP-1R, read-out: GLP-1 EC50

T1 sequence (P43220 24-463, species assumed): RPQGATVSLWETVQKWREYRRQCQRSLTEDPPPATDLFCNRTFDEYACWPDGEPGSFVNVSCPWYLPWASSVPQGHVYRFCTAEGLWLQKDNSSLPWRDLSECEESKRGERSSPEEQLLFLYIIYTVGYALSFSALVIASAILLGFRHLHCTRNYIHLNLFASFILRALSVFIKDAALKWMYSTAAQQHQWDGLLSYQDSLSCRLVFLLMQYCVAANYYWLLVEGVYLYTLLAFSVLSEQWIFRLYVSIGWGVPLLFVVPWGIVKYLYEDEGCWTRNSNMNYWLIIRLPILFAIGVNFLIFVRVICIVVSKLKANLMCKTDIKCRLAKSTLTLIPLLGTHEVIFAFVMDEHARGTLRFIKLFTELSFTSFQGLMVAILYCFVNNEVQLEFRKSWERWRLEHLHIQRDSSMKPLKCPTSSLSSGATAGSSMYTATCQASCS

EC50 (GLP-1R; [2]): 9 pM
Structure (SMILES): CC[C@H](C)[C@H](NC(=O)[C@H](Cc1ccccc1)NC(=O)[C@@H]1CCCCNC(=O)CN(C(=O)[C@@H](N)CCCCNC(=O)[C@@H](N)CCCCNC(=O)CC[C@H](NC(=O)CCCCCCCCCCCCCCCCCCC(=O)O)C(=O)O)CC(=O)NCCCC[C@H](NC(=O)[C@H](CCCCN)NC(=O)[C@H](CC(=O)O)NC(=O)[C@H](CC(C)C)NC(=O)[C@](C)(CC(C)C)NC(=O)[C@@H](NC(=O)[C@H](CO)NC(=O)[C@H](Cc2ccc(O)cc2)NC(=O)[C@H](CC(=O)O)NC(=O)[C@H](CO)NC(=O)[C@@H](NC(=O)[C@H](Cc2ccccc2)NC(=O)[C@@H](NC(=O)CNC(=O)[C@H](CCC(N)=O)NC(=O)C(C)(C)NC(=O)[C@@H](N)Cc2ccc(O)cc2)[C@@H](C)O)[C@@H](C)O)[C@@H](C)CC)C(=O)N[C@@H](C)C(=O)N[C@@H](CCC(N)=O)C(=O)NC(C)(C)C(=O)N1)C(=O)N[C@@H](CCC(=O)O)C(=O)N[C@@H](Cc1ccccc1)C(=O)N[C@@H](CC(C)C)C(=O)N[C@@H](CC(C)C)C(=O)N[C@@H](CCC(=O)O)C(=O)NCC(=O)NCC(=O)N1CCC[C@H]1C(=O)N[C@@H](CO)C(=O)N[C@@H](CO)C(=O)NCC(=O)N[C@@H](C)C(=O)N1CCC[C@H]1C(=O)N1CCC[C@H]1C(=O)N1CCC[C@H]1C(=O)N[C@@H](CO)C(N)=O [Example 22, YAibQGT FTSDY SIα- MeLLD K^1KAQAib ^1KFIEF LLEGG PSSGA PPPS-NH2 (SEQ ID NO: 25)]

Structure (SMILES): CC[C@H](C)[C@H](NC(=O)[C@H](Cc1ccccc1)NC(=O)[C@H](C)NC(=O)C(C)(C)NC(=O)[C@H](CCC(N)=O)NC(=O)[C@H](C)NC(=O)[C@@H]1CCCCNC(=O)CN(C(=O)COCCOCCNC(=O)CC[C@H](NC(=O)CCCCCCCCCCCCCCCCCCC(=O)O)C(=O)O)CC(=O)NCCCC[C@H](NC(=O)[C@](C)(CC(C)C)NC(=O)[C@@H](NC(=O)[C@H](CO)NC(=O)[C@H](Cc2ccc(O)cc2)NC(=O)[C@H](CC(=O)O)NC(=O)[C@H](CO)NC(=O)[C@@H](NC(=O)[C@H](Cc2ccccc2)NC(=O)[C@@H](NC(=O)CNC(=O)[C@H](CCC(N)=O)NC(=O)C(C)(C)NC(=O)[C@@H](N)Cc2ccc(O)cc2)[C@@H](C)O)[C@@H](C)O)[C@@H](C)CC)C(=O)N[C@@H](CC(=O)O)C(=O)N[C@@H](CCCCN)C(=O)N1)C(=O)N[C@@H](CCC(=O)O)C(=O)N[C@@H](Cc1ccc(O)cc1)C(=O)N[C@@H](CC(C)C)C(=O)N[C@@H](CC(C)C)C(=O)N[C@@H](CCCCN)C(=O)NCC(=O)NCC(=O)N1CCC[C@H]1C(=O)N[C@@H](CO)C(=O)N[C@@H](CO)C(=O)NCC(=O)N[C@@H](C)C(=O)N1CCC[C@H]1C(=O)N1CCC[C@H]1C(=O)N1CCC[C@H]1C(=O)N[C@@H](CO)C(N)=O [Example 38, YAibQGT FTSDY SIα- MeL^1KD K^1KAQAib AFIEY LLKGG PSSGA PPPS-NH2 (SEQ ID NO: 38)]
AUC(0-t) ([1]; read-out: AUC0-240 h): 3.88 µM·h | AUC(0-inf) ([1]; read-out: AUCINF): 4.41 µM·h | Cmax ([1]; read-out: Cmax): 0.0339 µM | half-life ([1]; read-out: T1/2 (converted)): 74.9 h | Tmax ([1]; read-out: Tmax): 21.3 h | EC50 (GLP-1R): 2 pM

EC50 (GLP-1R; [2]): 1 pM
Structure (SMILES): CC[C@H](C)[C@@H]1NC(=O)[C@H](Cc2ccccc2)NC(=O)[C@@H](NC(=O)C(C)(C)NC(=O)[C@H](CCC(N)=O)NC(=O)[C@H](C)NC(=O)[C@H](CCCCN)NC(=O)[C@H](CCCCN)NC(=O)[C@H](CC(=O)O)NC(=O)[C@H](CC(C)C)NC(=O)[C@](C)(CC(C)C)NC(=O)[C@@H](NC(=O)[C@H](CO)NC(=O)[C@H](Cc2ccc(O)cc2)NC(=O)[C@H](CC(=O)O)NC(=O)[C@H](CO)NC(=O)[C@@H](NC(=O)[C@H](Cc2ccccc2)NC(=O)[C@@H](NC(=O)CNC(=O)[C@H](CCC(N)=O)NC(=O)C(C)(C)NC(=O)[C@@H](N)Cc2ccc(O)cc2)[C@@H](C)O)[C@@H](C)O)[C@@H](C)CC)CCCCNC(=O)CN(C(=O)COCCOCCNC(=O)COCCOCCNC(=O)CC[C@H](NC(=O)CCCCCCCCCCCCCCCCCCC(=O)O)C(=O)O)CC(=O)NCCCC[C@@H](C(=O)NCC(=O)NCC(=O)N2CCC[C@H]2C(=O)N[C@@H](CO)C(=O)N[C@@H](CO)C(=O)NCC(=O)N[C@@H](C)C(=O)N2CCC[C@H]2C(=O)N2CCC[C@H]2C(=O)N2CCC[C@H]2C(=O)N[C@@H](CO)C(N)=O)NC(=O)[C@H](CC(C)C)NC(=O)[C@H](CC(C)C)NC(=O)[C@H](Cc2ccc(O)cc2)NC(=O)[C@H](CCC(=O)O)NC1=O [Example 14, YAibQGT FTSDY SIα- MeLLD KKAQAib ^1KFIEY LLIKGG PSSGA PPPS-NH2 (SEQ ID NO: 20)]

EC50 (GLP-1R; [2]): 2 pM
Structure (SMILES): CC[C@H](C)[C@H](NC(=O)[C@H](Cc1ccccc1)NC(=O)[C@H](C)NC(=O)C(C)(C)NC(=O)[C@H](CCC(N)=O)NC(=O)[C@H](C)NC(=O)[C@@H]1CCCCNC(=O)CN(C(=O)COCCOCCNC(=O)[C@@H](N)CCCCNC(=O)CC[C@H](NC(=O)CCCCCCCCCCCCCCCCCCC(=O)O)C(=O)O)CC(=O)NCCCC[C@H](NC(=O)[C@](C)(CC(C)C)NC(=O)[C@@H](NC(=O)[C@H](CO)NC(=O)[C@H](Cc2ccc(O)cc2)NC(=O)[C@H](CC(=O)O)NC(=O)[C@H](CO)NC(=O)[C@@H](NC(=O)[C@H](Cc2ccccc2)NC(=O)[C@@H](NC(=O)CNC(=O)[C@H](CCC(N)=O)NC(=O)C(C)(C)NC(=O)[C@@H](N)Cc2ccc(O)cc2)[C@@H](C)O)[C@@H](C)O)[C@@H](C)CC)C(=O)N[C@@H](CC(=O)O)C(=O)N[C@@H](CCCCN)C(=O)N1)C(=O)N[C@@H](CCC(=O)O)C(=O)N[C@@H](Cc1ccc(O)cc1)C(=O)N[C@@H](CC(C)C)C(=O)N[C@@H](CC(C)C)C(=O)N[C@@H](CCCCN)C(=O)NCC(=O)NCC(=O)N1CCC[C@H]1C(=O)N[C@@H](CO)C(=O)N[C@@H](CO)C(=O)NCC(=O)N[C@@H](C)C(=O)N1CCC[C@H]1C(=O)N1CCC[C@H]1C(=O)N1CCC[C@H]1C(=O)N[C@@H](CO)C(N)=O [Example 54, YAibQGT FTSDY SIα- MeL^1KD K^1KAQAib AFIEY LLKGG PSSGA PPPS-NH2 (SEQ ID NO: 38)]
